Source: patent US20130137724A1, “PHARMACEUTICAL COMPOSITIONS COMPRISING 7-(1H-IMIDAZOL-4-YLMETHYL)-5,6,7,8-TETRAHYDRO-QUINOLINE FOR RETINAL NEUROPROTECTION” (ALLERGAN, INC., priority 2011, published 2013)

How the values were obtained:
alpha 2A receptor = biological target: T1, alpha 2A receptor (Homo sapiens, UniProt P08913); test: biochemical
T1 sequence (P08913 1-465): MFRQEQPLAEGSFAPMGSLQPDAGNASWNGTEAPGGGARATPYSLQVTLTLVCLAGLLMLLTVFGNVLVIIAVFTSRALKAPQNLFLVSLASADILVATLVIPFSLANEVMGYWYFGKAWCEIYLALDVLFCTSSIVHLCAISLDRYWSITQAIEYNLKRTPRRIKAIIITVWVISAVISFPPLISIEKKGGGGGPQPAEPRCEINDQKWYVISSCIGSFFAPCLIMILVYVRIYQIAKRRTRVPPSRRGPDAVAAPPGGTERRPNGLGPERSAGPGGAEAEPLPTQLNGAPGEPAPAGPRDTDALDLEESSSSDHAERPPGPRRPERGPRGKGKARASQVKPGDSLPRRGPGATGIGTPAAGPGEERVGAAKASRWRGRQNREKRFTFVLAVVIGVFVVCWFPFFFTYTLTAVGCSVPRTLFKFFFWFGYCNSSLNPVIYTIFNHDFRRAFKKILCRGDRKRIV
Procedure: The extent of binding is a measure of receptor activation. […] Membranes were thawed and resuspended using a Polytron disrupter in 4° C. membrane buffer and quantified via Bradford assay. […] The above mixture was then aliquoted, 50 μL/well, in a 96 well plate, combined with an equal volume of test compound dissolved in assay buffer [50 mM Tris-HCl, 100 mM NaCl, 5 mM MgCl2, 1 mM EDTA, and 1 mM DTT, pH 7.4 and 4° C.], and allowed to incubate for 5 minutes. […] Assays were terminated by vacuum filtration over GF/B filters blocked with 0.5% BSA.

[1] = test system: visual acuity in normal DB rabbits; test: Visual enhancement model, spatial sweep visual evoked potential (sVEP) acuity; type: in vivo, rabbit; details: intravenous route, 10-30 minutes post-dose
Procedure: Spatial sweep visual evoked potential (sVEP) acuity. Spatial sVEP acuity was assessed with PowerDiva software version 1.8. Recordings were made bilaterally in conscious animals.

[2] = test system: blue light induced retinal damage; test: Blue light model of retinal degeneration, retinal thickness by OCT; type: in vivo, rat; details: subcutaneous pump 0.3 and 1 mg/kg/day from two days before exposure, OCT 7 days post blue light, Sprague-Dawley rats
Procedure: Twenty 4-month old male Sprague-Dawley rats (body weight 470-550 g) were used in this study. The animals were exposed to room light on a 12 hour light/12 hour dark cycle before the experiment. All animals were dark adapted overnight (16-20 hours) before blue light. Under the intensity of 6100-6500 lux, rats were exposed to blue light for 4 hours. After the blue light, rats were placed in the dark for another 3 days before returning to normal 12 hour light/12 hour dark. Ocular Coherence Tomography (OCT) measurement was performed at 7 days post blue light exposure.
Histology studies have shown that the reduction in retinal thickness is attributable to loss of photoreceptors.

[3] = Drug level in the retina with continuous subcutaneous pump dosing; type: in vivo, rat; details: 0.3 mg/kg/day and 1 mg/kg/day, rats
α2A-adrenergic receptor = biological target: T2, α2A-adrenergic receptor (Homo sapiens, UniProt P08913); details: for Percent of Bmax Decrease: 1 μM compound, 24 hours, HEK 293T cells stably transfected with α2A-adrenergic receptor; for down-regulation of alpha2A receptor / receptor density: binding studies, result in words
T2 sequence (P08913 1-465): T1 sequence (P08913 1-465)
Procedure: Human embryonic kidney (HEK) 293T cells stably transfected with the α2A-adrenergic receptor were grown to 50-60% confluency on T-175 culture flasks in DMEM (Gibco, cat. #11995), 10% FBS (Gibco, cat. #16140), 0.25 ug/mL puromycin (Sigma, cat. #P-8833), and 1% antibiotic-antimycotic (Gibco, cat. #15240) maintained at 37° C. and 5% CO2. […] The cells were then washed with room temperature Dulbecco's phosphate buffered saline (DPBS; Gibco, cat. #14190).
Cells were harvested with 4° C. Tris-EDTA buffer [50 mM Tris-HCl, 5 mM EDTA; pH 7.4] and centrifuged at 5,000×g for 5 minutes at 4° C. Membrane preparation was conducted by resuspending the cell pellets in 4° C. Tris-EDTA buffer and lysed with a Polytron disrupter two times (setting 7, 5 seconds each). The lysed suspension was then centrifuged at ˜35,000×g for 32 minutes at 4° C. After decanting the supernatant, the pelleted material was further lysed in 4° C. Tris buffer [50 mM Tris-HCl; pH 8.0] using the Polytron disrupter (setting 4, 5 seconds). Membranes were then aliquoted, pelleted at ˜37,000×g for 32 minutes at 4° C., and stored at −80° C. until use.
Membranes were thawed and resuspended using a Polytron disrupter in 4° C. HBSS-HEPES buffer [1 part 1M HEPES: 5 parts 10× Hank's Balanced Salt Solution: 43.8 parts H2O; pH 7.4 with KOH] and quantified via Bradford assay. The quantified protein was further diluted with HBSS-HEPES buffer to achieve a 100 μg/mL concentration. Membrane suspension was plated in a 96-well plate at 200 μLs/well ±10 μM phentolamine HCl (Sigma, cat. #P-7547) and [Methyl-^3H] Rauwolscine (15 nM to 0.05 nM; PerkinElmer, cat. #NET722250UC). The assay plate was slowly shaken and incubated at 25° C. for ninety minutes. Immediately following the above incubation, the assays were terminated by vacuum filtration over GF/B filters. Filters were then washed with 4° C. HBSS-HEPES buffer. The incorporated [Methyl-^3H] Rauwolscine was determined using a Microbeta 1450B liquid scintillation counter after the plates had dried overnight.

| Structure (SMILES) | EC50 (alpha 2A receptor) | Relative Efficacy (alpha 2A receptor; efficacy relative to the full agonist brimonidine) | visual acuity (sVEP) [1] | damage caused by blue light (retinal thickness by OCT) [2] | drug levels in the retina [3] | Percent of Bmax Decrease (α2A-adrenergic receptor) | down-regulation of alpha2A receptor / receptor density (α2A-adrenergic receptor) |
| --- | --- | --- | --- | --- | --- | --- | --- |
| c1cnc2c(c1)CC[C@H](Cc1c[nH]cn1)C2 [(S)-(+)-7-(1H-Imidazol-4-ylmethyl)-5,6,7,8-tetrahydro-quinoline] | < 1 nM | 0.6 | enhances visual acuity | significantly reduced the damage caused by blue light | 1.3 ng/g | −25% | induces very little down-regulation of alpha2A receptor |
| Brc1c(N=C2NCCN2)ccc2nccnc12 [Brimonidine, (5-bromo-quinoxalin-6-yl)-imidazolidin-2-ylidene-amine, reference compound] |  |  |  |  |  | −45% | induced a strong reduction in the alpha 2A receptor density |
